Results taken from patent US20120083473A1, “TREATMENT OF CONDITIONS BY TOLL-LIKE RECEPTOR MODULATORS” (priority 2010, published 2012).
One block for each compound: values may come before it.

Key:
[1] = system: murine peritoneal macrophages (PEC); test: Dose-response of M1 and M2 gene expression in PEC (RT PCR); type: cell-based, mice; settings: PECs treated 4 hours or 20 hours with increased concentrations
Experimental: A third group of experiments was performed to investigate the dose-response effects of TMX, its potency as compared to classical inflammatory signals (e.g. LPS) and the activation of selected transcription factors playing an established role in tolerance, as well as in the induction of M1/M2 polarized inflammatory programs. PECs treated for 4 hours or 20 hours with 100 ng/mlof LPS or increased concentrations of TMX or 1V209 were analyzed by RT PCR for the expression of representative M1 (TNFα, IL-12p40) and M2 (IL-10, TGFβ) genes. […] In this experiment, as compared to 1V209, TMX is a lower inducer of M1 genes expression.
Cell Culture and treatments. Peritoneal exudate cells (PEC) were harvested from mice injected with 1 ml of 3% (w/v) thioglycollate medium (Difco, Detroit, Mich.) 4 days prior to isolation. PECs were incubated in RPMI 1640 medium, containing 10% fetal bovine serum, 2 mM glutamine and 100 U/ml of penicillin-streptomycin. The concentration for the different treatments were as follows: LPS (100 ng/ml) (Lipopolysaccharide from Salmonella Abortus Equi S-form, Alexis), CpG (1 μg/ml), Pam3CSK (2 μg/ml), Poly I:C (10 μg/ml), Loxorubine (100 μM), flagellin (100 ng/ml) IL-1β (20 ng/ml), TNF (20 ng/ml), IL-10 (20 ng/ml) (Peprotech), IFNγ (200 U/ml) (Peprotech). To induce TMX tolerance, cells were incubated in the presence of TMX (10 μM or 1 μM) for 20 hrs, washed and maintained in RPMI medium for 2 hrs and then re-challenged with TMX (10 μM) for 4 hrs. To induce TMX-tolerization (T/M) cells were treated with TMX for 20 hrs, washed and then maintained in medium for additional 6 hours, without TMX re-challenge. To induce M1-activation, cells were incubated in medium for 20 hrs, washed, left in medium for 2 hrs and finally stimulated with TMX (10 μM) for 4 hrs. Control cells (M/M) were cultured in medium for the entire period of the experiment. For gene expression analysis, total RNA was extracted from TMX treated and untreated cells with trizol (Invitrogen), according to the manufacturer's instructions. To analyze cytokines and chemokines production supernatants were collected 24 hrs after the second challenge with TMX.
(§1) Real-Time PCR. Total RNA was purified as previously described. Briefly, reverse transcription from 1 μg of RNA was performed using cDNA Archive kit (Applied Biosystem, NJ, USA). Real time PCR was performed using Power Syber Green PCR Master Mix (Applied Biosystem, NJ, USA) and detected by 7900HT Fast Real-Time System (Applied Biosystem, NJ, USA). Data were processed using the SDS2.2.2 software (Applied Biosystem, NJ, USA). Results were normalized to the expression of the housekeeping gene β-actin and then expressed as folds of upregulation, with respect to the control cell population.

human monocytes (Mo) = test: M1/M2 gene expression in human monocytes (Real-Time PCR); type: cell-based; settings: excluding Mo from one healthy donor
Experimental: To evaluate the effects of TMX on human cell activation, monocytes were isolated from buffy coats obtained from four different healthy donors. With respect to macrophage tolerance, cells were treated with Compound 2 (10 microM) up to 20 hours and then re-challenged with agonists/ligands of different TLRs (TLR2, TLR4, TLR5, TLR9, TLR7, etc. . . . ), including the TLR7 unconjugated ligand 1V209 (free pharmacophore) at a concentration of 10 microM.
Cell Culture and treatments. Monocytes (Mo) were obtained from buffycoats collected from healthy donors as previously described (Porta C et al, PNAS 2009). Cells were incubated in RPMI 1640 medium, containing 10% fetal bovine serum, 2 mM glutamine and 100 U/ml of penicillin-streptomycin. The concentrations for the different treatments were as follows: LPS (100 ng/ml) (Lipopolysaccharide from Salmonella Abortus Equi S-form, Alexis), CpG (1 microg/ml), Pam3CSK (2 microg/ml), Poly I:C (10 microg/ml), Loxorubine (100 microM), flagellin (100 ng/ml). To induce TMX tolerance, cells were incubated in the presence of TMX (10 microM) for 20 hrs, washed and maintained in RPMI medium for 2 hrs and then re-challenged with TMX (10 microM) for 4 hrs. To induce TMX-tolerization (T/M) cells were treated with TMX for 20 hrs, washed and then maintained in medium for additional 6 hours, without TMX re-challenge. To induce M1-activation cells were incubated in medium for 20 hrs, washed, left in medium for 2 hrs and finally stimulated with TMX (10 microM) for 4 hrs. Control cells (M/M) were cultured in medium for the entire period of the experiment. For gene expression analysis, total RNA was extracted from TMX treated and untreated cells with trizol (Invitrogen), according to the manufacturer's instructions. To analyze cytokines and chemokines production supernatants were collected 24 hrs after the second challenge with TMX.
as §1, with “from 1 microgram of RNA” for “from 1 μg of RNA”, “performed using a cDNA Archive” for “performed using cDNA Archive”, “housekeeping gene 8-actin and then” for “housekeeping gene β-actin and then”

[2] = PK analysis after i.v. administration in mice; type: in vivo
[3] = Dissolution in suitable solvents for testing; type: physicochemical

SMILES: COCCOc1nc(N)c2[nH]c(=O)n(Cc3ccc(C(=O)O)cc3)c2n1 [Compound 1V209, 4-((6-amino-2-(2-methoxyethoxy)-8-oxo-7H-purin-9(8H)-yl)methyl)benzoic acid, reference compound]
induction of both M1 and M2 gene expression [1]: dose-dependent induction
potency as compared to Compound 2 in terms of induction of both M1 and M2 gene expression (human monocytes (Mo)): higher potency

AUC in comparison with Compound 3 [2]: lower
Cmax in comparison with Compound 3 [2]: lower
clearance in comparison with Compound 3 [2]: higher
half life in comparison with Compound 3 [2]: longer
SMILES: COCCOc1nc(N)c2nc(O)n(Cc3ccc(C(=O)NCCOCCOCCOCCOCCOCCOCCOCCOCCOCCOCCn4cc(CCC(=O)O)nn4)cc3)c2n1 [Compound 6, 3-(1-(1-(4-((6-amino-8-hydroxy-2-(2-methoxyethoxy)-9H-purin-9-yl)methyl)phenyl)-1-oxo-5,8,11,14,17,20,23,26,29,32-decaoxa-2-azatetratriacontan-34-yl)-1H-1,2,3-triazol-4-yl)propanoic acid]

dissolution in suitable solvents for testing [3]: difficulty in dissolution
SMILES: CCCCCCCC/C=C\CCCCCCCC(=O)OCC(COP(=O)(O)OCCNC(=O)c1ccc(Cn2c(=O)[nH]c3c(N)nc(OCCOC)nc32)cc1)OC(=O)CCCCCCC/C=C\CCCCCCCC (stereo not shown) [compound (6), 2-(4-((6-amino-2-(2-methoxyethoxy)-8-oxo-7H-purin-9(8H)-yl)methyl)benzamido)ethyl 2,3-bis(oleoyloxy)propyl phosphate]
